From ChEMBL document CHEMBL3352200, “Thio-sugar motif of functional CARB-pharmacophore for antineoplastic activity. Part 2” (Bioorg Med Chem Lett, 2014)
pIC50: −log10 of the molar value.

Assays:
A549 [1] = test: Cytotoxicity against human A549 cells after 14 hrs by CCK-8 assay; format: functional, cell-based; conditions: A549, 14 h
HeLa [2] = test: Cytotoxicity against human HeLa cells after 14 hrs by CCK-8 assay; format: functional, cell-based
MCF7 [3] = test: Cytotoxicity against human MCF7 cells after 14 hrs by CCK-8 assay; format: functional, cell-based; conditions: MCF7, 14 h
LoVo [4] = test: Cytotoxicity against human LoVo cells after 14 hrs by CCK-8 assay; format: functional, cell-based
[5] = Cytotoxicity against human PNT2 cells at 8.6 to 2200 uM after 14 hrs by CCK-8 assay; format: cell-based; conditions: pnt2, 14 h
LoVo [6] = test: Induction of apoptosis in human LoVo cells assessed as viable cells at 69 uM after 4 hrs by FITC Annexin-V/propidium iodide staining-based flow cytometry (reference value: 79.50%); format: functional; conditions: read-out: Activity
LoVo [7] = test: Induction of apoptosis in human LoVo cells assessed as viable cells at 550 uM after 4 hrs by FITC Annexin-V/propidium iodide staining-based flow cytometry (reference value: 79.50%); format: functional; conditions: read-out: Activity
LoVo [8] = test: Induction of apoptosis in human LoVo cells assessed as apoptotic cells at 69 uM after 4 hrs by FITC Annexin-V/propidium iodide staining-based flow cytometry (reference value: 20.50%); format: functional
LoVo [9] = test: Induction of apoptosis in human LoVo cells assessed as apoptotic cells at 550 uM after 4 hrs by FITC Annexin-V/propidium iodide staining-based flow cytometry (reference value: 20.50%); format: functional
A549 [10] = test: Induction of apoptosis in human A549 cells assessed as viable cells at 34 uM after 4 hrs by FITC Annexin-V/propidium iodide staining-based flow cytometry (reference value: 84.40%); format: functional; conditions: A549, 4 h, read-out: Activity
A549 [11] = test: Induction of apoptosis in human A549 cells assessed as viable cells at 275 uM after 4 hrs by FITC Annexin-V/propidium iodide staining-based flow cytometry (reference value: 84.40%); format: functional; conditions: A549, 4 h, read-out: Activity
A549 [12] = test: Induction of apoptosis in human A549 cells assessed as apoptotic cells at 34 uM after 4 hrs by FITC Annexin-V/propidium iodide staining-based flow cytometry (reference value: 15.60%); format: functional
A549 [13] = test: Induction of apoptosis in human A549 cells assessed as apoptotic cells at 275 uM after 4 hrs by FITC Annexin-V/propidium iodide staining-based flow cytometry (reference value: 15.60%); format: functional
MCF7 [14] = test: Induction of apoptosis in human MCF7 cells assessed as viable cells at 17 uM after 4 hrs by FITC Annexin-V/propidium iodide staining-based flow cytometry (reference value: 70.40%); format: functional; conditions: MCF7, 4 h, read-out: Activity
MCF7 [15] = test: Induction of apoptosis in human MCF7 cells assessed as viable cells at 137 uM after 4 hrs by FITC Annexin-V/propidium iodide staining-based flow cytometry (reference value: 70.40%); format: functional; conditions: MCF7, 4 h, read-out: Activity
MCF7 [16] = test: Induction of apoptosis in human MCF7 cells assessed as apoptotic cells at 17 uM after 4 hrs by FITC Annexin-V/propidium iodide staining-based flow cytometry (reference value: 29.60%); format: functional
MCF7 [17] = test: Induction of apoptosis in human MCF7 cells assessed as apoptotic cells at 137 uM after 4 hrs by FITC Annexin-V/propidium iodide staining-based flow cytometry (reference value: 29.60%); format: functional
HeLa [18] = test: Induction of apoptosis in human HeLa cells assessed as viable cells at 17 uM after 4 hrs by FITC Annexin-V/propidium iodide staining-based flow cytometry (reference value: 87.00%); format: functional; conditions: read-out: Activity
HeLa [19] = test: Induction of apoptosis in human HeLa cells assessed as viable cells at 137 uM after 4 hrs by FITC Annexin-V/propidium iodide staining-based flow cytometry (reference value: 87.00%); format: functional; conditions: read-out: Activity
HeLa [20] = test: Induction of apoptosis in human HeLa cells assessed as apoptotic cells at 17 uM after 4 hrs by FITC Annexin-V/propidium iodide staining-based flow cytometry (reference value: 13.00%); format: functional
HeLa [21] = test: Induction of apoptosis in human HeLa cells assessed as apoptotic cells at 137 uM after 4 hrs by FITC Annexin-V/propidium iodide staining-based flow cytometry (reference value: 13.00%); format: functional
[22] = Lipophilicity, log P of the compound; format: physicochemical; conditions: octanol/water
LoVo [23] = test: Induction of apoptosis in human LoVo cells assessed as viable cells at 34 uM after 4 hrs by FITC Annexin-V/propidium iodide staining-based flow cytometry (reference value: 79.50%); format: functional; conditions: read-out: Activity
LoVo [24] = test: Induction of apoptosis in human LoVo cells assessed as viable cells at 275 uM after 4 hrs by FITC Annexin-V/propidium iodide staining-based flow cytometry (reference value: 79.50%); format: functional; conditions: read-out: Activity
LoVo [25] = test: Induction of apoptosis in human LoVo cells assessed as apoptotic cells at 34 uM after 4 hrs by FITC Annexin-V/propidium iodide staining-based flow cytometry (reference value: 20.50%); format: functional
LoVo [26] = test: Induction of apoptosis in human LoVo cells assessed as apoptotic cells at 275 uM after 4 hrs by FITC Annexin-V/propidium iodide staining-based flow cytometry (reference value: 20.50%); format: functional
A549 [27] = test: Induction of apoptosis in human A549 cells assessed as viable cells at 17 uM after 4 hrs by FITC Annexin-V/propidium iodide staining-based flow cytometry (reference value: 84.40%); format: functional; conditions: A549, 4 h, read-out: Activity
A549 [28] = test: Induction of apoptosis in human A549 cells assessed as viable cells at 137 uM after 4 hrs by FITC Annexin-V/propidium iodide staining-based flow cytometry (reference value: 84.40%); format: functional; conditions: A549, 4 h, read-out: Activity
A549 [29] = test: Induction of apoptosis in human A549 cells assessed as apoptotic cells at 17 uM after 4 hrs by FITC Annexin-V/propidium iodide staining-based flow cytometry (reference value: 15.60%); format: functional
A549 [30] = test: Induction of apoptosis in human A549 cells assessed as apoptotic cells at 137 uM after 4 hrs by FITC Annexin-V/propidium iodide staining-based flow cytometry (reference value: 15.60%); format: functional
MCF7 [31] = test: Induction of apoptosis in human MCF7 cells assessed as viable cells at 34 uM after 4 hrs by FITC Annexin-V/propidium iodide staining-based flow cytometry (reference value: 70.40%); format: functional; conditions: MCF7, 4 h, read-out: Activity
MCF7 [32] = test: Induction of apoptosis in human MCF7 cells assessed as viable cells at 275 uM after 4 hrs by FITC Annexin-V/propidium iodide staining-based flow cytometry (reference value: 70.40%); format: functional; conditions: MCF7, 4 h, read-out: Activity
MCF7 [33] = test: Induction of apoptosis in human MCF7 cells assessed as apoptotic cells at 34 uM after 4 hrs by FITC Annexin-V/propidium iodide staining-based flow cytometry (reference value: 29.60%); format: functional
MCF7 [34] = test: Induction of apoptosis in human MCF7 cells assessed as apoptotic cells at 275 uM after 4 hrs by FITC Annexin-V/propidium iodide staining-based flow cytometry (reference value: 29.60%); format: functional

O=C(O)c1ccccc1S[C@H]1CC(=O)[C@@H]2OC[C@H]1O2
pIC50 (A549 [1]): 3.51 | pIC50 (HeLa [2]): 3.36 | pIC50 (MCF7 [3]): 3.66 | pIC50 (LoVo [4]): 3.19 | Activity [5]: 10% | viability at 69 µM (LoVo [6]): 70.9% | viability at 550 µM (LoVo [7]): 37.8% | Activity (LoVo [8]): 29.1% | Activity (LoVo [9]): 62.2% | viability at 34 µM (A549 [10]): 72.6% | viability at 275 µM (A549 [11]): 62.2% | Activity (A549 [12]): 27.4% | Activity (A549 [13]): 37.84% | viability at 17 µM (MCF7 [14]): 60.9% | viability at 137 µM (MCF7 [15]): 37.5% | Activity (MCF7 [16]): 39.1% | Activity (MCF7 [17]): 62.5% | viability at 17 µM (HeLa [18]): 75.5% | viability at 137 µM (HeLa [19]): 74.2% | Activity (HeLa [20]): 24.5% | Activity (HeLa [21]): 25.8% | logP [22]: 1.28

CC(=O)OC[C@H]1O[C@@H](S[C@H]2CC(=O)[C@@H]3OC[C@H]2O3)[C@H](OC(C)=O)[C@@H](OC(C)=O)[C@H]1OC(C)=O
pIC50 (A549 [1]): 3.33 | pIC50 (HeLa [2]): 3.17 | pIC50 (MCF7 [3]): 3.46 | pIC50 (LoVo [4]): 3.21 | Activity [5]: 10% | viability at 34 µM (LoVo [23]): 65.1% | viability at 275 µM (LoVo [24]): 70% | Activity (LoVo [25]): 34.9% | Activity (LoVo [26]): 30% | viability at 17 µM (A549 [27]): 71% | viability at 137 µM (A549 [28]): 78.1% | Activity (A549 [29]): 29% | Activity (A549 [30]): 21.9% | viability at 34 µM (MCF7 [31]): 57.8% | viability at 275 µM (MCF7 [32]): 80.8% | Activity (MCF7 [33]): 42.2% | Activity (MCF7 [34]): 19.2% | viability at 17 µM (HeLa [18]): 74.1% | viability at 137 µM (HeLa [19]): 37.2% | Activity (HeLa [20]): 25.9% | Activity (HeLa [21]): 62.8% | logP [22]: -1.13
